Here are results for 14 substances from patent US20260174875A1 (Novo Nordisk A/S, priority 2023, published 2026).

Where two headings read alike, the source gives them in different places. Numbered stars: 1 amine (or outer) side, 2 acyl side, 3 side chain; on linkers, the order of the positions; unused ones are H or OH. Square brackets hold non-standard residues; d marks the D form. Side chains are listed from the residue outwards. * marks the point of attachment. C18 diacid = O=C(O)CCCCCCCCCCCCCCCCC(=O)*; C16 diacid = O=C(O)CCCCCCCCCCCCCCC(=O)*; γGlu = O=C(O)[C@H](CCC(=O)[*:2])N[*:1]; AEEA = NCCOCCOCC(=O)O; Aib = CC(C)(N)C(=O)O

The target in data set [1] is T1, human GIP receptor (hGIPR) (Homo sapiens, UniProt P48546).
T1 construct: expressed in transfected cells
T1 sequence (P48546 22-466): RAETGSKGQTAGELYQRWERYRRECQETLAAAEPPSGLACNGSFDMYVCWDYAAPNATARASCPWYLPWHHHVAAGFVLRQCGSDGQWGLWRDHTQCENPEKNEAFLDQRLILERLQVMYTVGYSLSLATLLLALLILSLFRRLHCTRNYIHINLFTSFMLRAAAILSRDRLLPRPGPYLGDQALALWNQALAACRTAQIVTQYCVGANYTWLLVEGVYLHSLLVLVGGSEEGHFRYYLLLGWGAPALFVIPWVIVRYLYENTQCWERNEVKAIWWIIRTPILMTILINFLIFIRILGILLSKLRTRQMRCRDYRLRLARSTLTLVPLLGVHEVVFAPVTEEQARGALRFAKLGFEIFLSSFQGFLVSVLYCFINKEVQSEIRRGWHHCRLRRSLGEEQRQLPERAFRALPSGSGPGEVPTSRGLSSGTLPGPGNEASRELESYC
The data set can be described thus: GIP receptor assay, method A (CRE-luciferase reporter, BHK cells). The format is cell-based. The method, boiled down: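 BHK cells co-expressing hGIPR and a CRE-luciferase reporter were stimulated for 3 h at 37 °C with a 7-point, 10-fold compound titration in duplicate. Buffer was DMEM, 10 mM HEPES, 1% ovalbumin, 0.1% Pluronic F-68, without HSA or with 1% (w/v) HSA. EC50 [pM] came from four-parameter logistic fits of luminescence.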
Background: Reporter assays use an easily measured gene product as a stand-in for the process of interest.

Data set [2] deals with T2, human GLP-1 receptor (hGLP-1R) (Homo sapiens, UniProt P43220).
T2 construct: expressed in transfected cells
T2 sequence (P43220 24-463): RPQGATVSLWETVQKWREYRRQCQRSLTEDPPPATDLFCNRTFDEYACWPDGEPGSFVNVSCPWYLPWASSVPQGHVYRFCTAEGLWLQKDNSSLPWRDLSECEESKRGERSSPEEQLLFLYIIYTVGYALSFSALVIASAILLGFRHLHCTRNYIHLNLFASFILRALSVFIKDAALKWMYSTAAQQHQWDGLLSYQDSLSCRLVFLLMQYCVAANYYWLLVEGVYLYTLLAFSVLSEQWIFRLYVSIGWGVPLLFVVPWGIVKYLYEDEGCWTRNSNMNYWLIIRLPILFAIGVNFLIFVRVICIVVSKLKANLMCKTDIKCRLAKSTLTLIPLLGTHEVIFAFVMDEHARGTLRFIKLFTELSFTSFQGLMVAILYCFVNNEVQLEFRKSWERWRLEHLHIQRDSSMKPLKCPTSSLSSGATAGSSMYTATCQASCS
The experiment in a line: GLP-1 receptor assay, method A (CRE-luciferase reporter, BHK cells). It is filed as cell-based. Summed up: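 Albumin sensitivity is tested by running the assay both without HSA and with 1% (w/v) HSA. Frozen BHK cells carrying hGLP-1R and CRE-driven luciferase are incubated with compound for 3 hours at 37° C. Luminescence is then read with steadylite Plus.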

Data set [3] can be described thus: Chemical stability assessment in formulation (UPLC-UV-MS purity loss at 37° C.). It is filed as physicochemical. The note with it: 8 mM phosphate buffer pH 7.4, 1 mg/mL, 2 weeks. The method, boiled down:
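Degradation tracked by UPLC-UV-MS (formic acid/acetonitrile gradient) on samples drawn over 2 weeks at 37° C. Solutions were made at a 1 mg/mL target in 8 mM phosphate, pH 7.4, kept in sealed vials and frozen after sampling.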

Setting [4] is: hGIPR Potency, 1% HSA, EC50, method A, in the presence of 1% HSA.
[5] abbreviates: hGIPR Potency, no HSA, EC50, method A, absence of HSA.
Where [6] appears, read: hGLP-1R Potency, 1% HSA, EC50, method A, in the presence of 1% HSA.
The mark [7] stands for this setting: hGLP-1R Potency, no HSA, EC50, method A, absence of HSA.
The mark [8] stands for this setting: method A, absence of HSA, read-out: hGIPR Potency, no HSA, EC50.
[9] abbreviates: method A, absence of HSA, read-out: hGLP-1R Potency, no HSA, EC50.

Take “H[Aib]HGTFTSDYSILLEEQAAREFIEWLLAGGPSK([AEEA-AEEA-γGlu-C16 diacid])GEASQLSTAALGRLSAELHRLADLPRTETGSGSP-NH2 [Compound 62]”: the EC50 in data set [1] (setting [4]) was 47.2 pM; in data set [1] (setting [5]), 2.26 pM; in data set [2] (setting [6]), 0.0115 nM; in data set [2] (setting [7]) it was 0.00413 nM. The “Purity loss per week at 37° C.” value in data set [3] was 3.0%.
As to “H[Aib]HGTFTSDYSILLEEQAAREFIEWLLAGGPSK([AEEA-AEEA-γGlu-C16 diacid])GAPPPSGGGEASELSTAALGRLSAELHELATLPRTETGSGSP-NH2 [Compound 12]”, the concentration for a half-maximal effect (EC50) came out at 59.1 pM in data set [1] (setting [4]), 2.62 pM in data set [1] (setting [8]) and 0.0102 nM in data set [2] (setting [6]). Moreover, the “Purity loss per week at 37° C.” value in data set [3] is on record as 5.6%.
For the substance “Y[Aib]EGTFTSDYSILLEEQAAREFIEWLLAGGPSSGAGQAPGQAPGASHLSTAQTQRLSAELHRLK([AEEA-AEEA-γGlu-C18 diacid])TLPRTETGSGSP-NH2 [Compound 56]”, the 50% effective concentration (EC50) in data set [1] (setting [4]) was found to be 8.48 pM; in data set [1] (setting [8]), 2.65 pM; in data set [2] (setting [6]) it was 0.0584 nM; in data set [2] (setting [9]), 0.0182 nM. The “Purity loss per week at 37° C.” value in data set [3] came to 0.6%.
As to “H[Aib]HGTFTSDYSILLEEQAAREFIEWLLAGGPSK([AEEA-AEEA-γGlu-C16 diacid])GAPPPSGGGEASHLSTAQTARLSAELHRLADLPRTETGSGSP-NH2 [Compound 61]”, the EC50 amounted to 16 pM in data set [1] (setting [4]), 1.3 pM in data set [1] (setting [5]), 0.0147 nM in data set [2] (setting [6]) and 0.00279 nM in data set [2] (setting [7]). For the same substance, the “Purity loss per week at 37° C.” value in data set [3] came out at 2.0%.
As to “H[Aib]HGTFTSDYSILLEEQAAREFIEWLLAGGPSSGAGQAPGQAPLASHLSTAQTQRLSAELHK([AEEA-AEEA-γGlu-C18 diacid])LATLPRTETGSGSP-NH2 [Compound 93]”, the EC50 in data set [1] (setting [4]) came out at 8.58 pM; in data set [1] (setting [8]), 2.54 pM; in data set [2] (setting [6]), 0.0164 nM; in data set [2] (setting [9]), 0.00411 nM. Further, in data set [3], the “Purity loss per week at 37° C.” value is recorded as 2.8%.
Consider “H[Aib]HGTFTSDYSILLEEQAAREFIEWLLAGGPSSGAGQAPGQAPGASHLSTAQTQRLSAELHRLK([AEEA-AEEA-γGlu-C18 diacid])TLPRTETGSGSP-NH2 [Compound 91]”, for which the EC50 in data set [1] (setting [4]) amounted to 9.31 pM; in data set [1] (setting [8]), 3.21 pM; in data set [2] (setting [6]), 0.0174 nM; in data set [2] (setting [9]), 0.00379 nM. For the same substance, the “Purity loss per week at 37° C.” value in data set [3] is 2.8%.
For “Y[Aib]EGTFTSDYSILLEEQAAREFIEWLLAGGPSSGEASHLSTAQTQRLSAELHK([AEEA-AEEA-γGlu-C18 diacid])LATLPRTETGSGSP-NH2 [Compound 50]” the same measures were 15.1 pM, 2.36 pM, 0.0663 nM, 0.0162 nM and 0.7%.
For “Y[Aib]EGTFTSDYSILLEEQAAREFIEWLLAGGPSSGEASHLSTAQTQRLSAELHRLK([AEEA-AEEA-γGlu-C18 diacid])TLPRTETGSGSP-NH2 [Compound 80]”, the EC50 in data set [1] (setting [4]) is 20.3 pM; in data set [1] (setting [8]), 4.01 pM; in data set [2] (setting [6]), 0.111 nM; in data set [2] (setting [9]) it was 0.0248 nM. Further, the “Purity loss per week at 37° C.” value in data set [3] worked out at 0.8%.
In the case of “Y[Aib]EGTFTSDYSILLEEQAAREFIEWLLAGGPSSGAGQAPGQAPGASHLSTAALGRLSAELHK([AEEA-AEEA-γGlu-C18 diacid])LATLPRTETGSGSP-NH2 [Compound 53]”, the EC50 in data set [1] (setting [4]) is 14.6 pM; in data set [1] (setting [8]), 3.25 pM; in data set [2] (setting [6]), 0.0792 nM; in data set [2] (setting [9]) it was 0.0233 nM. The “Purity loss per week at 37° C.” value in data set [3] came out at 0.8%.
In the case of “H[Aib]HGTFTSDYSILLEEQAAREFIEWLLAGGPSSGAGQAPGQAPGASHLSTAQTQRLSAK([AEEA-AEEA-γGlu-C18 diacid])LHRLATLPRTETGSGSP-NH2 [Compound 78]”, the EC50 was found to be 10.4 pM in data set [1] (setting [4]), 3.49 pM in data set [1] (setting [8]), 0.0178 nM in data set [2] (setting [6]) and 0.00403 nM in data set [2] (setting [9]). Besides, in data set [3], the “Purity loss per week at 37° C.” value turned out to be 3.5%.
For “H[Aib]HGTFTSDYSILLEEQAAREFIEWLLAGGPSK([AEEA-AEEA-γGlu-C18 diacid])GEASQLSTAALGRLSAELHQLATLPRTETGSGSP-NH2 [Compound 64]” the same measures were 100 pM, 2.03 pM, 0.0678 nM, 0.00371 nM and 3.3%.
Consider “H[Aib]HGTFTSDYSILLEEQAAREFIEWLLAGGPSK([AEEA-AEEA-γGlu-C16 diacid])GEASELSTAALGRLSAELHRLATLPRTETGSGSP-NH2 [Compound 17]”, for which the EC50 was 36.9 pM in data set [1] (setting [4]), 5.04 pM in data set [1] (setting [8]), 0.0131 nM in data set [2] (setting [6]) and 0.00272 nM in data set [2] (setting [9]). Besides, the “Purity loss per week at 37° C.” value in data set [3] turned out to be 4.2%.
The corresponding values for “Y[Aib]EGTFTSDYSILLEEQAAREFIEWLLAGGPSSGAGQAPGQAPGASHLSTAQTQRLSAELHRLATLPK([AEEA-AEEA-γGlu-C18 diacid])TETGSGSP-NH2 [Compound 57]” are 5.85 pM, 1.98 pM, 0.0296 nM, 0.0128 nM and 0.2%.
The corresponding values for “H[Aib]HGTFTSDYSILLEEQAAREFIEWLLAGGPSK([AEEA-AEEA-γGlu-C18 diacid])GAPPPSGGGEASELSTAALGRLSAELHELATLPRTETGSGSP-NH2 [Compound 15]” are 356 pM, 3.2 pM, 0.103 nM, 0.00141 nM and 3.8%.

What is called EC50 is the concentration that produces a half-maximal response.
